# Laboratory results as given in patent US20100216795A1, “TNIK INHIBITOR AND THE USE” (priority 2008, published 2010).
# Target: T1, human TNIK (N-terminal segment, TNIK_N) (Homo sapiens, UniProt Q9UKE5)
# T1 construct: made in house; host or cells: Sf21 insect cells (baculovirus)
# Assay: TNIK kinase assay (mobility shift)
# Assay type: biochemical
# Conditions: 25 μM ATP, 1 h at room temperature
# Excerpt: A cDNA encoding the N-terminal segment (TNIK_N, residues 1-314) containing the kinase domain of human TNIK (NM_015028.1) was amplified from cDNA mixture synthesized from human tissue (Biochain) by PCR using the following primers: 5′-[…]-3′ ([SEQ ID NO:1]: forward primer, the underlined nucleotides indicates the location of a EheI site); 5′-[…]-3′ ([SEQ ID NO:2]: reverse primer, the underlined nucleotides indicates the location of a NotI site). The cDNA was subcloned into baculovirus transfer vector pFastBac_GSTb that includes protease cleavage site and glutathione S-transferase purification tag (GST-tag). The plasmid was purified and the insertion of the pFastBac_GSTb-TNIK_N was confirmed by DNA sequencing. Then E. coli DH10Bac competent cells were transformed with the plasmid to prepare the recombinant bacmid according to the instructions for the Bac-to-Bac™ baculovirus expression systems (Invitrogen). The Sf9 cells were transfected with the recombinant bacmid containing pFastBac_GSTb-TNIK_N using Cellfectin Reagent (Invitrogen) in SF-900II serum free media (Invitrogen). The viral supernatant was collected from the medium 72 h after transfection. The virus was amplified three times by infecting actively growing Sf9 or Sf21 cells in Grace's insect media (Invitrogen) supplemented with 10% FCS and an antibiotic-antimycotic reagent (Invitrogen) for 72 h at 27° C. in T-flask or roller bottles. The titer of amplified TNIK_N virus was estimated at 2.36×10^8 pfu/ml by using BacPAK™ Baculovirus Rapid Titer kit (Clontech).
# Log-phase Sf21 cells (2×10^6 cells/ml) in the Grace's insect media were infected with the recombinant baculovirus at MOI of 3.0 and incubated in roller bottles (250 ml media per bottle) for 72 h at 27° C., after which, the cells were collected by centrifugation, and the cell pellet washed with cold PBS and kept at −80° C. until purification. The following purification procedures were carried out at 4° C. The frozen cells were thawed on ice and lysed in lysis buffer (50 mM Tris-HCl, pH 7.5, 150 mM NaCl, 1% Nonidet P-40, 5 mM DTT, 0.5 mM EDTA, 0.5 mM EGTA) supplemented with 1 mM phenylmethansulfonylfluoride, 2 μg/ml leupeptin, 2 μg/ml aprotinin, 1 mM NaF, 100 μM sodium orthovanadate, and 1 μM cantharidin by sonication. The suspended lysate was cleared by centrifugation at 9000 g for 20 min and the supernatant was incubated for 1 h with glutathione Sepharose beads (GE Healthcare). The beads were suspended in buffer-H (50 mM Tris-HCl, pH 7.5, 1 M NaCl, 1 mM DTT, 0.5 mM EDTA, 0.5 mM EGTA and 0.05% Brij35) and washed with buffer-H followed by buffer-L (50 mM Tris-HCl, pH 7.5, 150 mM NaCl, 1 mM DTT, 0.5 mM EDTA, 0.5 mM EGTA, 0.05% Brij35) in an Econo-pack column (BIO-RAD). The bound TNIK_N was eluted with elution buffer (50 mM Tris-HCl, pH 8.0, 150 mM NaCl, 1 mM DTT, 10% glycerol, 0.5 mM EDTA, 0.5 mM EGTA and 5 mM reduced glutathione). The eluted fractions were collected and determined the protein concentration by Bradford reagent (BIO-RAD). The TNIK_N fractions were pooled and desalted using 10DG column (BIORAD) equilibrated with the storage buffer (50 mM Tris-HCl, pH 7.5, 150 mM NaCl, 1 mM DTT, 10% glycerol, 0.05% Brij35). The purified TNIK_N was characterized by electrophoresis using 4-20% polyacrylamide gels and matrix-assisted laser desorption/ionization reflection time-of-flight (MALDI-TOF) mass spectrometry on a Voyager-DE RP MALDI/TOF (Applied Biosystems). TNIK_N was confirmed by the molecular weight and MASCOT Peptide Mass Fingerprint.
# The kinase assays were conducted in a 20 μl volume using 384-well plates (Greiner). The reaction mixture consists of compound or vehicle (1% DMSO), 0.08 ng/μl TNIK_N, 1 μM FITC-labeled substrate peptides, FITC-x-Lys-Tyr-Lys-Thr-Leu-Arg-Gln ([SEQ ID NO.3], x: ε-aminocaproic acid), 20 mM Hepes, pH 7.5, 0.01% Triton X-100, 5 mM MgCl2, 25 μM ATP and 2 mM DTT. As blank, TNIK_N was excluded from the reaction mixture of vehicle (1% DMSO). […]
# T1 sequence (Q9UKE5 1-314): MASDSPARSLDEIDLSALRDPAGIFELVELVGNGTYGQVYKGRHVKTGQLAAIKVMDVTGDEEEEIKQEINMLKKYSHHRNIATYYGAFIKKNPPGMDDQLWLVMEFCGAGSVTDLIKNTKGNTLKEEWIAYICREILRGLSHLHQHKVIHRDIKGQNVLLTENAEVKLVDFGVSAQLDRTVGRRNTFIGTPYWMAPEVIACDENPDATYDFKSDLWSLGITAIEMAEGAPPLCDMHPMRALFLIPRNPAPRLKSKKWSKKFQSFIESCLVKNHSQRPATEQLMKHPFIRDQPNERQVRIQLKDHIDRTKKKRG
row,IC50 [nM],Compound
1,18,"CC(=O)Nc1ccc(C(=O)Nc2sc(Nc3ccccc3C)nc2C(N)=O)cc1 [Compound A9, 2-(o-toluidino)-5-(4-acetamidobenzamido) thiazole-4-carboxamide]"
2,14,"COc1ccc(Nc2nc(C(N)=O)c(NC(=O)c3ccc(NC(C)=O)cc3)s2)cc1 [Compound A11, 5-(4-acetamidobenzamido)-2-(4-methoxyphenyl-amino)thiazole-4-carboxamide]"
3,24,"CC(=O)Nc1ccc(C(=O)Nc2sc(Nc3ccc(N)cc3)nc2C(N)=O)cc1 [Compound A19, 5-(4-acetamidobenzamido)-2-(4-aminophenyl-amino)thiazole-4-carboxamide]"
4,9,"CC(=O)Nc1ccc(C(=O)Nc2sc(Nc3cccnc3)nc2C(N)=O)cc1 [Compound A20, 5-(4-acetamidobenzamido)-2-(pyridin-3-ylamino) thiazole-4-carboxamide]"
5,15,"COc1ccc(Nc2nc(C(N)=O)c(NC(=O)c3ccc(N4CCN(C)CC4)cc3)s2)cc1 [Compound A22, 2-(4-methoxyphenylamino)-5-[4-(4-methyl-piperazin-1-yl)benzamido]thiazole-4-carboxamide]"
6,8,"COc1ccc(Nc2nc(C(N)=O)c(NC(=O)c3ccc(NCCO)cc3)s2)cc1 [Compound A23, 5-[4-(2-hydroxyethylamino)benzamido]-2-(4-methoxyphenylamino)thiazole-4-carboxamide]"
7,11,"COc1ccc(Nc2nc(C(N)=O)c(NC(=O)c3ccc(NCCN(C)C)cc3)s2)cc1 [Compound A24, 5-{4-[2-(dimethylamino)ethylamino]benzamido}-2-(4-methoxyphenylamino)thiazole-4-carboxamide]"
8,9,"COc1ccc(Nc2nc(C(N)=O)c(NC(=O)c3ccc(NCCN4CCOCC4)cc3)s2)cc1 [Compound A27, 2-(4-methoxyphenylamino)-5-[4-(2-morpholino-ethyl-amino)benzamido]thiazole-4-carboxamide]"
9,8,"COc1ccc(Nc2nc(C(N)=O)c(NC(=O)c3ccc(NCCN4CCCC4)cc3)s2)cc1 [Compound A29, 2-(4-methoxyphenylamino)-5-{4-[2-(pyrrolidin-1-yl)ethylamino]benzamido}thiazole-4-carboxamide]"
10,10,"COCCNc1ccc(C(=O)Nc2sc(Nc3ccc(OC)cc3)nc2C(N)=O)cc1 [Compound A31, 5-[4-(2-methoxyethylamino)benzamido]-2-(4-methoxyphenylamino)thiazole-4-carboxamide]"
11,9,"COc1ccc(Nc2nc(C(N)=O)c(NC(=O)c3ccc(NC(=O)CO)cc3)s2)cc1 [Compound A37, 5-[4-(2-hydroxyacetamido)benzamido]-2-(4-methoxyphenylamino)thiazole-4-carboxamide]"
12,18,"COc1ccc(Nc2nc(C(N)=O)c(NC(=O)c3ccc(NC(=O)CN4CCN(C)CC4)cc3)s2)cc1 [Compound A42, 2-(4-methoxyphenylamino)-5-{4-[2-(4-methyl-piperazin-1-yl)acetamido]benzamido}thiazole-4-carboxamide]"
13,13,"COc1ccc(Nc2nc(C(N)=O)c(NC(=O)c3ccc(N4CCC(CO)CC4)cc3)s2)cc1 [Compound A43, 5-{4-[4-(hydroxymethyl)piperidin-1-yl]benzamido}-2-(4-methoxyphenylamino)thiazole-4-carboxamide]"
14,11,COc1ccc(Nc2nc(C(N)=O)c(NC(=O)c3ccc(CN4CCN(C)CC4)cc3)s2)cc1 [Compound A44]
15,22,"COc1ccc(Nc2nc(C(N)=O)c(NC(=O)c3ccc(OCCN4CCCC4)cc3)s2)cc1 [Compound A45, 2-(4-methoxyphenylamino)-5-{4-[2-(pyrrolidin-1-yl)ethoxy]benzamido}thiazole-4-carboxamide]"
16,16,"COc1ccc(Nc2nc(C(N)=O)c(NC(=O)c3ccc(OC)cc3)s2)cc1 [Compound A46, 5-(4-methoxybenzamido)-2-(4-methoxyphenyl-amino)thiazole-4-carboxamide]"
17,3,"COc1ccc(C(=O)Nc2sc(Nc3ccncc3)nc2C(N)=O)cc1 [Compound A47, 5-(4-methoxybenzamido)-2-(pyridin-4-ylamino) thiazole-4-carboxamide]"
18,6,"COc1ccc(Nc2nc(C(N)=O)c(NC(=O)c3ccc(N(S(C)(=O)=O)S(C)(=O)=O)cc3)s2)cc1 [Compound A48, 2-(4-methoxyphenylamino)-5-{4-[N-(methyl-sulfonyl)methylsulfonamido]benzamido} thiazole-4-carboxamide]"
19,5,"COc1ccc(Nc2nc(C(N)=O)c(NC(=O)c3ccc(NCCN4CCCCC4)cc3)s2)cc1 [Compound A49, 2-(4-methoxyphenylamino)-5-{4-[2-(piperidin-1-yl)ethylamino]benzamido}thiazole-4-carboxamide]"
20,10,"COc1ccc(Nc2nc(C(N)=O)c(NC(=O)c3ccc(NCCc4ccncc4)cc3)s2)cc1 [Compound A55, 2-(4-methoxyphenylamino)-5-{4-[2-(pyridin-4-yl)ethylamino]benzamido}thiazole-4-carboxamide]"
21,7,"COc1ccc(C(=O)Nc2sc(Nc3cncnc3)nc2C(N)=O)cc1 [Compound A69, 5-(4-methoxybenzamido)-2-(pyrimidin-5-ylamino)thiazole-4-carboxamide]"
22,4,"NC(=O)c1nc(Nc2cccnc2)sc1NC(=O)c1ccc(NCCO)cc1 [Compound A72, 5-[4-(2-hydroxyethylamino)benzamido]-2-(pyridin-3-ylamino)thiazole-4-carboxamide]"
23,7,"CN1CCN(c2ccc(C(=O)Nc3sc(Nc4cccnc4)nc3C(N)=O)cc2)CC1 [Compound A74, 5-[4-(4-methylpiperazin-1-yl)benzamido]-2-(pyridin-3-ylamino)thiazole-4-carboxamide]"
24,7,"NC(=O)c1nc(Nc2ccncc2)sc1NC(=O)c1ccc(F)cc1 [Compound A76, 5-(4-fluorobenzamido)-2-(pyridin-4-ylamino) thiazole-4-carboxamide]"
25,2,"NC(=O)c1nc(Nc2cccnc2)sc1NC(=O)c1ccc(NCCc2ccncc2)cc1 [Compound A84, 2-(pyridin-3-ylamino)-5-{4-[2-(pyridin-4-yl)ethyl-amino]benzamido}thiazole-4-carboxamide]"
26,3,"COc1ccc(C(=O)Nc2sc(Nc3ccnc(F)c3)nc2C(N)=O)cc1 [Compound A92, 2-(2-fluoropyridin-4-ylamino)-5-(4-methoxy-benzamido)thiazole-4-carboxamide]"
27,6,"COc1ccc(C(=O)Nc2sc(Nc3ccc(CO)cc3)nc2C(N)=O)cc1 [Compound A102, 2-[4-(hydroxymethyl)phenylamino]-5-(4-methoxy-benzamido)thiazole-4-carboxamide]"
28,10,"COc1ccc(Nc2nc(C(N)=O)c(NC(=O)c3ccc(N)c(N)c3)s2)cc1 [Compound A103, 5-(3,4-diaminobenzamido)-2-(4-methoxyphenyl-amino)thiazole-4-carboxamide]"
